In the NIST ThermoML archive (doi:10.1021/je9010486):

Test: cn = amount concentration of the nth substance listed, in mol/dm3
Conditions: 101 kPa, Liquid

OC[C@@H](O)[C@@H](O)[C@H](O)[C@@H](O)CO [D-sorbitol] + O
Conditions | mass density, 293.15 K [kg/m3] | mass density, 303.15 K [kg/m3] | mass density, 313.15 K [kg/m3] | mass density, 323.15 K [kg/m3] | viscosity, 293.15 K [mPa·s] | viscosity, 303.15 K [mPa·s] | viscosity, 313.15 K [mPa·s] | viscosity, 323.15 K [mPa·s]
c1 = 0.1 | 1004.76 | 1002.12 | 998.58 | 994.32 | 1.088 | 0.8619 | 0.6892 | 0.5711
c1 = 0.2 | 1011.23 | 1008.52 | 1004.89 | 1000.54 | 1.113 | 0.8842 | 0.7109 | 0.5983
c1 = 0.3 | 1017.64 | 1014.83 | 1011.14 | 1006.75 | 1.168 | 0.9329 | 0.7399 | 0.6199
c1 = 0.4 | 1024.07 | 1021.15 | 1017.37 | 1012.93 | 1.22 | 0.9794 | 0.7849 | 0.6596
c1 = 0.5 | 1029.89 | 1026.88 | 1023.01 | 1018.5 | 1.275 | 1.029 | 0.8127 | 0.6841
c1 = 0.6 | 1036.94 | 1033.82 | 1029.9 | 1025.33 | 1.33 | 1.079 | 0.8573 | 0.7037
c1 = 0.7 | 1043.32 | 1040.11 | 1036.08 | 1031.44 | 1.394 | 1.136 | 0.8885 | 0.7392
c1 = 0.8 | 1049.36 | 1046.04 | 1041.95 | 1037.25 | 1.466 | 1.202 | 0.931 | 0.7779
c1 = 0.9 | 1056.16 | 1052.72 | 1048.48 | 1043.79 | 1.531 | 1.26 | 0.9849 | 0.8178
c1 = 1 | 1062.52 | 1058.99 | 1054.72 | 1049.92 | 1.608 | 1.329 | 1.03 | 0.8541
